Test results: patent US5276048A, “4-(1H-pyrrol-1-yl)imidazoles with angiotensin II antagonist activity” (Warner-Lambert Company, priority 1992, dated 1994)

Tested on: renal hypertensive rats (2-kidney, 1-clip Goldblatt model)
Test: blood pressure lowering in renal hypertensive rats (2-kidney, 1-clip Goldblatt model)
Type: in vivo, rat
Conditions: single oral dose of 30 mg/kg
Experimental: Finally, the compounds of Formula I were tested in vivo for blood pressure lowering effects in renal hypertensive rats (2-kidney, 1-clip Goldblatt model) according to the method described by S. Sen, et al, in Hypertension 1:427-434 (1979) and in Clin. Soc. 57:53-6, 1979.
Illustrative of the in vivo antihypertensive activity for compounds of Formula I is the data for 4-[2-(1-oxo-2,2,2-trifluoroethyl)-1H-pyrrol-1-yl]-2-propyl-1-[(2'-(1H-tetrazol-5-yl)biphen-4-yl)methyl]-1H-imidazole-5-carboxylic acid (Example 14). This compound lowers blood pressure by ≥50 mm Hg and is efficacious for more than 24 hours with a single oral dose of 30 mg/kg in the above rodent model.

CCCc1nc(-n2cccc2C(=O)C(F)(F)F)c(C(=O)O)n1Cc1ccc(-c2ccccc2-c2nnn[nH]2)cc1 [Example 14, 4-[2-(1-Oxo-2,2,2-trifluoroethyl)-1H-pyrrol-1-yl]-2-propyl-1-[(2'-(1H-tetrazol-5-yl)biphen-4-yl)methyl]-1H-imidazole-5-carboxylic acid]
duration of efficacy: more than 24 hours | lowers blood pressure: ≥ 50 mm Hg
